# Experimental data: US9216169B2, “Pharmaceutical composition comprising candesartan or ester thereof and chlortalidone, and use thereof” (TIANJIN INSTITUTE OF PHARMACEUTICAL RESEARCH, priority 2011, dated 2015)
# “And” between values parts separate entries of the source, which are not always exact repeats. Equal entries are not always repeated.
# Columns and labels:
# [1] = clinical studies; cited from earlier work
# patients = conditions: study in 1714 patients; cited from earlier work
# [2] = 25-50 mg/d of hydrochlorothiazide; clinical studies; cited from earlier work
# [3] = tested on: Spontaneously hypertensive rats (SHR); assay: SBP of SHR by Tail-Cuff method, continuous intragastric administration for 8 days (Examples 1-7); format: in vivo, rat; conditions: for maximum reduction of the blood pressure / SBP / SBP difference value compared with the basic value / AUC0-24h (area under blood pressure reduction-time curve): Can 0.36 mg/kg i.g. 8 days; for maximum reduction of the blood pressure: 0-24 h after last administration; for AUC0-24h (area under blood pressure reduction-time curve): after last administration
# Protocol: (§1) Spontaneously hypertensive rats (SHR), male, are provided by Beijing Vital River Laboratory Animal Technology Co., Ltd. The number of animal production license is SCXK (Jing) 2007-0001. Animals are raised in an observation room at the room temperature of 25±2° C. controlled by central air-conditioning system and with artificial lighting of 12 h/day. The animals are raised in separate cages sized 43×27×18 cm with 4 animals for each cage. The rats are free access to water and are fed with block fodder everyday, and the water supply is refreshed once a day. The temperature of the room for measuring the blood pressure is 26±2° C.
# (§2) The blood pressure is measured by Tail-Cuff method and the hear rate is measured according to the pulse frequency. Animals are pre-trained for the blood pressure measurement for more than 2 weeks so as to adapt to the environment of measurement. Animals are placed in a isothermal bag at 37° C. to be prewarmed for 5 to 10 min for formal measurement. Blood pressures of the rats are measured from tail arteries for 2 to 3 times at rest states, and an average value is taken as each blood pressure measured value. All data are collected and preserved by a computer.
# SHRs with systolic blood pressures (SBPs) >190 mmHg are selected for experiment.
# Rats are randomly divided into 14 groups according to their blood pressures with each group having 7 rats. Animals are fasted overnight and measured for the blood pressure of pre-administration at the day of experiment, and then administered drugs in accordance with the following method:
# The single-drug group is intragastrically administered candesartan (Can) or chlorthalidone (Chl), with the dosage of Can of 0.36 mg/kg and the dosages of Chl of 0.0675, 0.36, 0.54, 0.72, 1.125 and 2.25 mg/kg respectively;
# The pharmaceutical composition is administered with 6 different doses (denoted by F1, F2, F3, F4, F5 and F6 respectively). Specifically, the ratios of the dosages of Can+Chl in all pharmaceutical compositions are:
# The administration volumes are all 5 ml/kg.
# Rats are continuously administered for 8 days. SBPs are measured 2, 4, 8, 12 and 24 hours after the last administration. The area under blood pressure reduction-time curve from 0 to 24 h (AUC0-24) and the maximum blood pressure reduction value are calculated.
# (§3) The calculated results are expressed as mean±standard error ( x±SE); statistical treatment is performed using unpaired t test between groups to compare the significance of the average difference; the interaction between drugs are determined by using factorial analysis of variance, and P<0.05 means the difference has statistical significance.
# [4] = tested on: Spontaneously hypertensive rats (SHR); assay: SBP of SHR by Tail-Cuff method, first administration and continuous administration for 14 days (Examples 8-12); format: in vivo, rat; conditions: for AUC0-24h: after first administration
# Protocol: as §1, §2
# SHRs with systolic blood pressures (SBPs)>190 mmHg are selected for experiment.
# Rats are randomly divided into 20 groups according to their blood pressures with each group having 8-10 rats. Animals are fasted overnight and measured for the blood pressure of pre-administration at the day of experiment, and then administered drugs in accordance with the following method:
# The single-drug group is intragastrically administered candesartan (Can) or chlorthalidone (Chl), with the dosage of Can of 0.1, 0.2, 0.4 mg/kg respectively and the dosage of Chl of 0.3125, 0.625, 1.25 mg/kg respectively;
# According to the clinical single-drug specification, the ratios of Can+Chl are set as follows:
# For the ratio of Can:Chl=1:6.25, one dose of 0.1+0.625 mg/kg is set;
# For the ratio of Can:Chl=1:3.125, two doses of 0.2+0.625 and 0.4+1.25 mg/kg are set;
# For the ratio of Can:Chl=1.28:1, one dose of 0.4+0.3125 mg/kg is set;
# For the ratio of Can:Chl=2.56:1, one dose of 0.4+0.15625 mg/kg is set;
# The administration volumes are all 5 mL/kg. Rats are continuously administered for 14 days. SBPs are measured 2, 4, 8, 12 and 24 hours after the first administration. On the day of 3, 7, 14 days after administration, the blood pressures are measured before administration and 5 hours after administration. Areas under blood pressure reduction-time curve from 0 to 24 h and from 0 to 14 days (AUC0-24h, AUC0-14d) are calculated.
# as §3
# [5] = listed as candesartan cilexetil
smiles,measurement,setting,value
NCCCC[C@H](N[C@@H](CCc1ccccc1)C(=O)O)C(=O)N1CCC[C@H]1C(=O)O [lisinopril],valid control rate of blood pressure,[1],61.2%
CCOc1nc2cccc(C(=O)O)c2n1Cc1ccc(-c2ccccc2-c2nc(=O)o[nH]2)cc1 [azilsartan],reduction of SBP compared with the basic value,patients,12.1-15.9 mmHg
"NS(=O)(=O)c1cc2c(cc1Cl)NCNS2(=O)=O [hydrochlorothiazide, Hydrochlorothiazide]",lowering of 24-hour blood pressure,[2],7.4 mmHg
same,lowering of night-time blood pressure,[2],6.4 mmHg
"CCOc1nc2cccc(C(=O)OC(C)OC(=O)OC3CCCCC3)c2n1Cc1ccc(-c2ccccc2-c2nn[nH]n2)cc1 (stereo not shown) [Can, Candesartan cilexetil]",maximum reduction of the blood pressure,[3],−19.0 mmHg
same,maximum reduction of the blood pressure,[3]; [5],19.0 mmHg
same,SBP,[3]; 2 h after last administration,192 mmHg
same,SBP difference value compared with the basic value,[3]; 2 h after last administration,(−11.0 mmHg
same,SBP,[3]; 4 h after last administration,185 mmHg
same,SBP difference value compared with the basic value,[3]; 4 h after last administration,(−17.7 mmHg
same,SBP,[3]; 8 h after last administration,196 mmHg
same,SBP difference value compared with the basic value,[3]; 8 h after last administration,(−7.3 mmHg
same,SBP,[3]; 12 h after last administration,199 mmHg
same,SBP difference value compared with the basic value,[3]; 12 h after last administration,(−3.7 mmHg
same,SBP,[3]; 24 h after last administration,204 mmHg
same,SBP difference value compared with the basic value,[3]; 24 h after last administration,(1.4 mmHg
same,AUC0-24h (area under blood pressure reduction-time curve),[3],−127.0 mmHg · h
same,AUC0-24h (area under blood pressure reduction-time curve),[3]; [5],−127 mmHg · h
same,SBP,[3]; pre-administration,201 mmHg
same,SBP difference value compared with the basic value,[3]; pre-administration,(−2.0 mmHg
same,period after administration with significant reduction of SBP,[3]; Can 0.36 mg/kg oral,2 to 8 h
same,time at which the antihypertensive effect takes effect after administration,[3]; Can 0.36 mg/kg oral,2 h
same,AUC0-14d,[4]; Can 0.1 mg/kg i.g. for 14 days,−149.9 mmHg · d
same,AUC0-24h,[4]; Can 0.1 mg/kg i.g.,−209.1 mmHg · h
same,AUC0-14d,[4]; Can 0.2 mg/kg i.g. for 14 days,−173.1 mmHg · d
same,AUC0-24h,[4]; Can 0.2 mg/kg i.g.,−237.7 mmHg · h
same,AUC0-14d,[4]; Can 0.4 mg/kg i.g. for 14 days,−227.3 mmHg · d
same,AUC0-24h,[4]; Can 0.4 mg/kg i.g.,−326.0 mmHg · h and −326 mmHg · h
